Laboratory results taken from PubChem BioAssay AID1259407 (Chemical Carcinogenesis Research Information System (CCRIS), 2018).
Calls of active or inactive are those of the source. How the calls were made is not given here.

Tested on: CCRIS mutagenicity, Ames/micronucleus/aberration tests
Assay: CCRIS mutagenicity studies
[1] = Test System: AMES SALMONELLA TYPHIMURIUM, Strain/Indicator: TA98, Metabolic Activation: NONE, Method: STANDARD PLATE
[2] = Test System: AMES SALMONELLA TYPHIMURIUM, Strain/Indicator: TA98, Metabolic Activation: RAT, LIVER, S-9, AROCLOR 1254, Method: STANDARD PLATE
[3] = Test System: AMES SALMONELLA TYPHIMURIUM, Strain/Indicator: TA100, Metabolic Activation: NONE, Method: STANDARD PLATE
[4] = Test System: AMES SALMONELLA TYPHIMURIUM, Strain/Indicator: TA100, Metabolic Activation: RAT, LIVER, S-9, AROCLOR 1254, Method: STANDARD PLATE
[5] = Test System: AMES SALMONELLA TYPHIMURIUM, Strain/Indicator: TA1535, Metabolic Activation: NONE, Method: STANDARD PLATE
[6] = Test System: AMES SALMONELLA TYPHIMURIUM, Strain/Indicator: TA1535, Metabolic Activation: RAT, LIVER, S-9, AROCLOR 1254, Method: STANDARD PLATE
[7] = Test System: AMES SALMONELLA TYPHIMURIUM, Strain/Indicator: TA1537, Metabolic Activation: RAT, LIVER, S-9, AROCLOR 1254, Method: STANDARD PLATE
[8] = Test System: AMES SALMONELLA TYPHIMURIUM, Strain/Indicator: TA1538, Metabolic Activation: NONE, Method: STANDARD PLATE
[9] = Test System: AMES SALMONELLA TYPHIMURIUM, Strain/Indicator: TA1538, Metabolic Activation: RAT, LIVER, S-9, AROCLOR 1254, Method: STANDARD PLATE
[10] = Test System: AMES SALMONELLA TYPHIMURIUM, Strain/Indicator: TA98, Metabolic Activation: NONE, Method: PREINCUBATION

With `Nc1ccc(-c2cc([N+](=O)[O-])c(N)c(Cl)c2Cl)cc1` the mutagenic call (Test System: Ames Salmonella typhimurium, Strain/Indicator: TA98, Metabolic Activation: None, Method: Preincubation) was “active; positive. weak response”, the mutagenic call (Test System: Ames Salmonella typhimurium, Strain/Indicator: TA98, Metabolic Activation: Rat, Liver, S-9, Phenobarbital and 5,6-benzoflavone, Method: Preincubation) was “active; positive” and the mutagenic call (Test System: Ames Salmonella typhimurium, Strain/Indicator: TA100, Metabolic Activation: None, Method: Preincubation) was “inactive; negative”. The mutagenic call (Test System: Ames Salmonella typhimurium, Strain/Indicator: TA100, Metabolic Activation: Rat, Liver, S-9, Phenobarbital and 5,6-benzoflavone, Method: Preincubation) was “active; positive”, the mutagenic call (Test System: Ames Salmonella typhimurium, Strain/Indicator: YG1024, Metabolic Activation: None, Method: Preincubation) was “active; positive” and the mutagenic call (Test System: Ames Salmonella typhimurium, Strain/Indicator: YG1024, Metabolic Activation: Rat, Liver, S-9, Phenobarbital and 5,6-benzoflavone, Method: Preincubation) was “active; positive”. For the same molecule, the mutagenic call (Test System: Ames Salmonella typhimurium, Strain/Indicator: YG1029, Metabolic Activation: None, Method: Preincubation) was “inactive; negative” and the mutagenic call (Test System: Ames Salmonella typhimurium, Strain/Indicator: YG1029, Metabolic Activation: Rat, Liver, S-9, Phenobarbital and 5,6-benzoflavone, Method: Preincubation) was “active; positive”.
`CC(=O)Oc1ccccc1C(=O)Oc1ccccc1C(=O)O` was tested, and the mutagenic call (Test System: AMES SALMONELLA TYPHIMURIUM, Strain/Indicator: TA97, Metabolic Activation: NONE, Method: STANDARD PLATE) was “inactive; negative”, the mutagenic call (Test System: AMES SALMONELLA TYPHIMURIUM, Strain/Indicator: TA97, Metabolic Activation: RAT, LIVER, S-9, AROCLOR 1254, Method: STANDARD PLATE) was “inactive; negative” and the mutagenic call [1] was “inactive; negative”. The mutagenic call [2] was “inactive; negative”, the mutagenic call [3] was “inactive; negative” and the mutagenic call [4] was “inactive; negative”. The mutagenic call [5] was “inactive; negative”, the mutagenic call [6] was “inactive; negative” and the mutagenic call (Test System: AMES SALMONELLA TYPHIMURIUM, Strain/Indicator: TA1537, Metabolic Activation: NONE, Method: STANDARD PLATE) was “inactive; negative”. The mutagenic call [7] was “inactive; negative”, the mutagenic call [8] was “inactive; negative” and the mutagenic call [9] was “inactive; negative”.
In the case of `O[C@@H]1C=Cc2c(cc3ccc4cccc5ccc2c3c45)[C@@H]1O`, the mutagenic call [2] is reported as “active; positive”.
For `O=C(O)[C@H]1OC(Oc2ccc3cc4ccc5cccc6ccc(c3c2)c4c56)[C@H](O)[C@@H](O)[C@@H]1O` (stereo partly drawn), the mutagenic call [10] was “inactive; negative” and the mutagenic call (Test System: AMES SALMONELLA TYPHIMURIUM, Strain/Indicator: TA98, Metabolic Activation: RAT, LUNG, S-9, Method: PREINCUBATION) was “inactive; negative”.
`NC(=Nc1ccccc1)Nc1ccccc1` was tested, and the mutagenic call (Test System: AMES SALMONELLA TYPHIMURIUM, Strain/Indicator: TA98, Metabolic Activation: HAMSTER, LIVER, S-9, AROCLOR 1254, Method: STANDARD PLATE) was “active; positive”, the mutagenic call [10] was “inactive; negative” and the mutagenic call [1] was “inactive; negative”. The mutagenic call (Test System: AMES SALMONELLA TYPHIMURIUM, Strain/Indicator: TA98, Metabolic Activation: RAT LIVER S-9, PHENOBARBITAL AND BETA-NAPHTHOFLAVONE, Method: PREINCUBATION) was “inactive; negative”, the mutagenic call [2] was “inactive; negative” and the mutagenic call (Test System: AMES SALMONELLA TYPHIMURIUM, Strain/Indicator: TA98, Metabolic Activation: S-9, Method: STANDARD PLATE) was “inactive; negative”. For the same molecule, the mutagenic call (Test System: AMES SALMONELLA TYPHIMURIUM, Strain/Indicator: TA100, Metabolic Activation: HAMSTER, LIVER, S-9, AROCLOR 1254, Method: STANDARD PLATE) was “active; positive”, the mutagenic call (Test System: AMES SALMONELLA TYPHIMURIUM, Strain/Indicator: TA100, Metabolic Activation: NONE, Method: PREINCUBATION) was “inactive; negative” and the mutagenic call [3] was “inactive; negative”. For the same molecule, the mutagenic call (Test System: AMES SALMONELLA TYPHIMURIUM, Strain/Indicator: TA100, Metabolic Activation: RAT LIVER S-9, PHENOBARBITAL AND BETA-NAPHTHOFLAVONE, Method: PREINCUBATION) was “inactive; negative”, the mutagenic call [4] was “inactive; negative” and the mutagenic call (Test System: AMES SALMONELLA TYPHIMURIUM, Strain/Indicator: TA100, Metabolic Activation: S-9, Method: STANDARD PLATE) was “inactive; negative”. The mutagenic call (Test System: AMES SALMONELLA TYPHIMURIUM, Strain/Indicator: TA1535, Metabolic Activation: HAMSTER, LIVER, S-9, AROCLOR 1254, Method: STANDARD PLATE) was “inactive; negative”, the mutagenic call (Test System: AMES SALMONELLA TYPHIMURIUM, Strain/Indicator: TA1535, Metabolic Activation: NONE, Method: PREINCUBATION) was “inactive; negative” and the mutagenic call [5] was “inactive; negative”. The mutagenic call (Test System: AMES SALMONELLA TYPHIMURIUM, Strain/Indicator: TA1535, Metabolic Activation: RAT LIVER S-9, PHENOBARBITAL AND BETA-NAPHTHOFLAVONE, Method: PREINCUBATION) was “inactive; negative”, the mutagenic call [6] was “inactive; negative” and the mutagenic call (Test System: AMES SALMONELLA TYPHIMURIUM, Strain/Indicator: TA1537, Metabolic Activation: HAMSTER, LIVER, S-9, AROCLOR 1254, Method: STANDARD PLATE) was “inactive; negative”. For the same molecule, the mutagenic call (Test System: AMES SALMONELLA TYPHIMURIUM, Strain/Indicator: TA1537, Metabolic Activation: NONE, Method: PREINCUBATION) was “inactive; negative”, the mutagenic call (Test System: AMES SALMONELLA TYPHIMURIUM, Strain/Indicator: TA1537, Metabolic Activation: RAT LIVER S-9, PHENOBARBITAL AND BETA-NAPHTHOFLAVONE, Method: PREINCUBATION) was “inactive; negative” and the mutagenic call [7] was “inactive; negative”. The mutagenic call (Test System: AMES SALMONELLA TYPHIMURIUM, Strain/Indicator: TA1538, Metabolic Activation: HAMSTER, LIVER, S-9, AROCLOR 1254, Method: STANDARD PLATE) was “inactive; negative”, the mutagenic call (Test System: AMES SALMONELLA TYPHIMURIUM, Strain/Indicator: TA1538, Metabolic Activation: NONE, Method: PREINCUBATION) was “inactive; negative” and the mutagenic call [8] was “inactive; negative”. For the same molecule, the mutagenic call (Test System: AMES SALMONELLA TYPHIMURIUM, Strain/Indicator: TA1538, Metabolic Activation: RAT LIVER S-9, PHENOBARBITAL AND BETA-NAPHTHOFLAVONE, Method: PREINCUBATION) was “inactive; negative”, the mutagenic call [9] was “inactive; negative” and the mutagenic call (Test System: E.COLI, Strain/Indicator: WP2UVRA, Metabolic Activation: NONE, Method: PREINCUBATION) was “inactive; negative”. For the same molecule, the mutagenic call (Test System: E.COLI, Strain/Indicator: WP2UVRA, Metabolic Activation: RAT LIVER S-9, PHENOBARBITAL AND BETA-NAPHTHOFLAVONE, Method: PREINCUBATION) was “inactive; negative”, the mutagenic call (Test System: MOUSE LYMPHOMA, Strain/Indicator: L5178Y (TK+/TK-), Metabolic Activation: NONE, Method: SUSPENSION/PLATE) was “inactive; negative. reevaluation of results: negative” and the mutagenic call (Test System: MOUSE LYMPHOMA, Strain/Indicator: L5178Y (TK+/TK-), Metabolic Activation: RAT, LIVER, S-9, AROCLOR 1254, Method: SUSPENSION/PLATE) was “inactive; negative. reevaluation of results: inconclusive”.
